Assay results as given in US9139532B2, “Pyrazolyl guanidine F1F0-atpase inhibitors and therapeutic uses thereof” (Lycera Corporation, priority 2010, dated 2015).
Like-named read-outs stand apart in the source and are kept apart here.

Key:
F1F0-ATPase = target: T1, F1F0-ATPase (Bos taurus, UniProt P13621); assay: Inhibition of F1F0-ATPase activity in synthesizing ATP; type: biochemical; settings: inhibition of ATP synthesis by F1F0-ATPase; read-out: ATP Syn IC50
T1 construct: from tissue

Ramos cells = assay: Cytotoxicity in Ramos cells; type: cell-based; settings: cytotoxicity in Ramos cells, read-out: Ramos Cell EC50

Compound | IC50 (F1F0-ATPase) [µM] | EC50 (Ramos cells) [µM] | EC50 (Ramos cells; Homo sapiens) [µM]
Cc1cc(N/C(=N\C(=O)c2ccc(C(F)(F)F)cc2)NCCC(F)(F)F)n[nH]1 [Compound A-183] | < 10 | < 10 | –
O=C(/N=C(\Nc1cc(C(F)(F)F)[nH]n1)NC1CCC(O)CC1)c1ccc(C(F)(F)F)cc1 (centres unmarked) [Compound A-560] | < 10 | > 10 | –
CC(C)CNC(=NC(=O)c1ccc(Cl)cc1)Nc1cc(-c2cc(F)cc(F)c2)n[nH]1 [Compound A-233] | < 10 | – | < 10
CCc1cc(C(=O)/N=C(\Nc2cc(-c3ccc(F)cc3)[nH]n2)NC(C)(C)C)ccn1 [Compound A-177] | < 10 | < 10 | –
Cc1cc(C(=O)/N=C(/NCc2ccc(F)cc2Cl)Nc2cc(C(F)(F)F)[nH]n2)ccc1F [Compound A-555] | < 10 | < 10 | –
COCC(C)N/C(=N/C(=O)c1ccc(C(F)(F)F)cc1)Nc1cc(C(F)(F)F)n[nH]1 (centres unmarked) [Compound A-97] | < 10 | – | < 10
Cc1cc(C(=O)/N=C(/NCc2ccccc2C)Nc2cc(-c3ccc(F)cc3)[nH]n2)ccc1F [Compound A-393] | < 10 | < 10 | –
CCOCC(C)NC(=NC(=O)c1ccc(Cl)c(F)c1)Nc1cc(-c2ccc(F)cc2)n[nH]1 (centres unmarked) [Compound A-217] | < 10 | – | < 10
CCCCN/C(=N/C(=O)c1ccc(Cl)c(F)c1)Nc1cc(-c2cc(F)cc(F)c2)n[nH]1 [Compound A-360] | < 10 | < 10 | –
COc1ccc(-c2cc(N/C(=N\C(=O)c3ccc(F)c(F)c3)Nc3cc(F)cc(Cl)c3)[nH]n2)cc1 [Compound A-480] | < 10 | > 10 | –
CC(C)(C)N/C(=N/C(=O)c1ccc(C(F)(F)F)cc1)Nc1cc(C(F)F)[nH]n1 [Compound A-53] | < 10 | – | < 10
O=C(/N=C(/NCC1CCO1)Nc1cc(-c2ccc(F)cc2)n[nH]1)c1ccc(F)cc1 (centres unmarked) [Compound A-270] | < 10 | > 10 | –
O=C(/N=C(\Nc1cc(C(F)(F)F)[nH]n1)NC1CCCCCC1)c1ccc(C(F)F)cc1 [Compound A-87] | < 10 | – | < 10
CC(C)N/C(=N/C(=O)c1ccc(Cl)cc1)Nc1cc(C(F)(F)F)n[nH]1 [Compound A-107] | < 10 | – | < 10
CC(C)(CO)N/C(=N/C(=O)c1ccc(F)cc1)Nc1cc(-c2ccc(F)cc2)n[nH]1 [Compound A-538] | < 10 | – | > 10
Cc1ccc(C(=O)N=C(NCc2ccc(F)cc2Cl)Nc2cc(C(F)(F)F)n[nH]2)cc1 [Compound A-549] | < 10 | – | < 10
Cc1ccccc1CNC(=NC(=O)c1ccc(Cl)cc1)Nc1cc(-c2ccc(F)cc2)n[nH]1 [Compound A-401] | < 10 | – | < 10
CC(C)N/C(=N/C(=O)c1ccc(F)c(F)c1)Nc1cc(-c2cc(F)cc(F)c2)n[nH]1 [Compound A-366] | < 10 | < 10 | –
COCCCN/C(=N/C(=O)c1ccc(F)cc1)Nc1cc(C(F)(F)F)[nH]n1 [Compound A-409] | < 10 | > 10 | –
Cc1cc(N/C(=N\C(=O)c2ccc(F)c(F)c2)NCC(C)C)n[nH]1 [Compound A-191] | > 10 | > 10 | –
O=C(/N=C(/NCC1CC1)Nc1cc(-c2cc(F)cc(F)c2)n[nH]1)c1ccc(Cl)c(F)c1 [Compound A-361] | < 10 | < 10 | –

Compound | IC50 (F1F0-ATPase) [µM] | EC50 (Ramos cells) [µM] | EC50 (Ramos cells; Homo sapiens) [µM]
O=C(/N=C(\Nc1cc(-c2cc(F)cc(F)c2)n[nH]1)NC1CC1)c1ccc(F)c(F)c1 [Compound A-198] | < 10 | < 10 | –
O=C(/N=C(\Nc1cc(-c2ccc(CO)cc2)[nH]n1)NC1CCCC1)c1ccc(F)c(F)c1 [Compound A-158] | > 10 | > 10 | –
CCC(C)(C)N/C(=N/C(=O)c1cccc(C(F)(F)F)c1)Nc1cc(C(F)(F)F)[nH]n1 [Compound A-78] | < 10 | – | < 10
Cc1ccc(-c2cc(N/C(=N\C(=O)c3ccc(C(F)(F)F)cc3)NCC(C)C)[nH]n2)cc1F [Compound A-332] | < 10 | > 10 | –
O=C(N=C(Nc1cc(-c2ccccc2)[nH]n1)NC1CCOCC1)c1ccc(C(F)(F)F)cc1 [Compound A-466] | > 10 | – | > 10
O=C(/N=C(\Nc1cc(C(F)(F)F)[nH]n1)NC1CCCCCC1)c1ccc(F)c(F)c1 [Compound A-41] | < 10 | – | < 10
CC(C)N/C(=N/C(=O)c1ccc(F)cc1)Nc1cc(-c2cc(F)cc(F)c2)n[nH]1 [Compound A-245] | < 10 | < 10 | –
Cc1csc(CN/C(=N/C(=O)c2ccc(F)cc2)Nc2cc(C(F)(F)F)[nH]n2)n1 [Compound A-416] | < 10 | > 10 | –
Cc1ccc(-c2cc(N/C(=N\C(=O)c3ccc(F)c(F)c3)NCc3ccc(F)cc3Cl)[nH]n2)cc1F [Compound A-317] | < 10 | < 10 | –
COc1cccc(CN/C(=N/C(=O)c2cccc(F)c2)Nc2cc(-c3ccc(F)cc3)[nH]n2)c1 [Compound A-398] | < 10 | < 10 | –
CC1(C)OCC(CN/C(=N/C(=O)c2ccc(F)cc2)Nc2cc(C(F)(F)F)[nH]n2)O1 (centres unmarked) [Compound A-412] | < 10 | > 10 | –
Cc1ccc(-c2cc(N/C(=N\C(=O)c3ccc(F)c(F)c3)NC(C)C(C)C)[nH]n2)cc1F (centres unmarked) [Compound A-324] | < 10 | < 10 | –
COc1cc(C(=O)/N=C(\Nc2cc(-c3ccc(F)cc3)n[nH]2)NC(C)(C)C)ccn1 [Compound A-496] | < 10 | < 10 | –
CCOCC(C)NC(=NC(=O)c1cccc(F)c1)Nc1cc(-c2ccc(F)cc2)n[nH]1 (centres unmarked) [Compound A-256] | < 10 | < 10 | –
C[C@H](N/C(=N\C(=O)c1ccc(Cl)cc1)Nc1cc(C(F)(F)F)n[nH]1)C1CCCCC1 [Compound A-109] | < 10 | – | < 10
CC(C)(C)N/C(=N/C(=O)c1ccc(C(F)(F)F)cc1)Nc1cc(-c2cc(F)cc(F)c2)n[nH]1 [Compound A-299] | < 10 | < 10 | –
N#Cc1cccc(C(=O)/N=C(\Nc2cc(-c3cc(F)cc(F)c3)n[nH]2)NC2CCC2)c1 [Compound A-314] | < 10 | < 10 | –
O=C(/N=C(/NCc1ccc(F)c(Cl)c1)Nc1cc(C(F)(F)F)[nH]n1)c1ccc(Cl)cc1 [Compound A-31] | < 10 | – | < 10
COc1ccccc1C(=O)/N=C(\Nc1cc(-c2ccc(F)cc2)[nH]n1)NC(C)(C)C [Compound A-157] | > 10 | > 10 | –
CCOc1cccc(C(=O)/N=C(\Nc2cc(-c3ccc(F)cc3)[nH]n2)NC(C)(C)C)c1 [Compound A-402] | < 10 | < 10 | –
CCC(C)NC(=NC(=O)c1ccc(C(F)(F)F)cc1)Nc1cc(-c2cc(F)cc(F)c2)n[nH]1 (centres unmarked) [Compound A-297] | < 10 | – | < 10

Compound | IC50 (F1F0-ATPase) [µM] | EC50 (Ramos cells) [µM] | EC50 (Ramos cells; Homo sapiens) [µM]
COCC(C)NC(=NC(=O)c1ccc(OC)cc1F)Nc1cc(-c2ccc(F)cc2)n[nH]1 (centres unmarked) [Compound A-371] | > 10 | > 10 | –
COCC(C)NC(=NC(=O)c1ccc(Cl)cc1)Nc1cc(-c2cc(F)cc(F)c2)n[nH]1 (centres unmarked) [Compound A-228] | < 10 | > 10 | –
CC(C)(C)CN/C(=N/C(=O)c1ccc(C(F)(F)F)cc1)Nc1cc(C(F)(F)F)n[nH]1 [Compound A-51] | < 10 | – | < 10
COCC(C)NC(=NC(=O)c1ccc(F)cc1)Nc1cc(-c2ccc(Cl)cc2)n[nH]1 (centres unmarked) [Compound A-276] | < 10 | < 10 | –
CC(C)N/C(=N/C(=O)c1ccc(C(F)(F)F)cc1)Nc1cc(C(F)(F)F)n[nH]1 [Compound A-90] | < 10 | – | < 10
CC1(CN/C(=N/C(=O)c2ccc(F)c(F)c2)Nc2cc(-c3ccc(F)cc3)n[nH]2)COC1 [Compound A-200] | < 10 | > 10 | –
CC(C)(C)N/C(=N/C(=O)c1ccc(C(F)(F)F)cc1)Nc1cc(C(F)(F)F)n[nH]1 [Compound A-13] | < 10 | – | < 10
CC(C)CN/C(=N/C(=O)c1cccc(F)c1)Nc1cc(-c2cc(F)cc(F)c2)n[nH]1 [Compound A-368] | < 10 | < 10 | –
CCC(C)NC(=NC(=O)c1ccc(F)c(F)c1)Nc1cc(-c2cc(F)cc(Cl)c2)n[nH]1 (centres unmarked) [Compound A-285] | < 10 | – | < 10
CC(C)(C)CN/C(=N/C(=O)c1cccc(C#N)c1)Nc1cc(C(F)(F)F)[nH]n1 [Compound A-72] | < 10 | – | < 10
COCC(C)NC(=NC(=O)c1cccc(F)c1)Nc1cc(-c2cc(F)cc(F)c2)n[nH]1 (centres unmarked) [Compound A-367] | < 10 | < 10 | –
CC(C)N/C(=N/C(=O)c1cccc(C#N)c1)Nc1cc(-c2cc(F)cc(F)c2)n[nH]1 [Compound A-312] | < 10 | < 10 | –
N#CC1(N/C(=N/C(=O)c2ccc(Cl)c(F)c2)Nc2cc(-c3cc(F)cc(F)c3)n[nH]2)CC1 [Compound A-343] | < 10 | – | > 10
CC(C)CNC(=NC(=O)c1ccc(Cl)cc1)Nc1cc(-c2ccc(F)cc2)n[nH]1 [Compound A-249] | < 10 | – | < 10
O=C(/N=C(/NCC(O)CO)Nc1cc(C(F)(F)F)n[nH]1)c1ccc(F)cc1 (centres unmarked) [Compound A-562, (Z)—N-(((2,3-Dihydroxypropyl)amino)((3-(trifluoromethyl)-1H-pyrazol-5-yl)amino)methylene)-4-fluorobenzamide] | > 10 | – | > 10
O=C(N=C(Nc1cc(-c2ccc(F)cc2)n[nH]1)NC1CCC1)c1ccc(F)c(F)c1 [Compound A-259] | < 10 | – | < 10
O=C(N=C(Nc1cc(-c2ccc(F)cc2)[nH]n1)NC1CCOC1)c1ccc(F)cc1 (centres unmarked) [Compound A-511] | < 10 | < 10 | –
O=C(/N=C(\Nc1cc(-c2ccc(F)cc2)n[nH]1)NC1CCCC1)c1ccc(F)c(F)c1 [Compound A-260] | < 10 | < 10 | –
Cc1ccccc1CN/C(=N/C(=O)c1cccc(F)c1)Nc1cc(-c2ccc(F)cc2)[nH]n1 [Compound A-399] | < 10 | < 10 | –
